According to patent US20210371483A1, “Composition for Inactivating Spores by Means of Antimicrobial Peptides” (Robert Bosch Gesellschaft Fur Medizinische Fruschung mbH, priority 2016, published 2021):
Entries after “also recorded” stand apart in the source; their conditions may differ. Where no end group is shown, it is not given here.

Experiments:
Type in all cases: cell-based, Clostridium difficile
C. difficile spores [1] = experiment: Incubation of C. difficile spore suspension with antimicrobial peptides, plating and counting of germinated spores; settings: spore suspension (at least 70% spores) incubated 60 minutes with peptide; plated on Columbia blood agar, anaerobic at least 4 days
Protocol: (§1) The effects of antimicrobial peptides on C. difficile spores were investigated by first enriching a bacterial suspension with spores so that at least 70% spores were present. The spore suspension was incubated for 60 minutes with various defensins (HBD1, HBD2, HBD3) and the cathelicidin LL37 (recombinant defensins: Peptanova Sandhausen, HBD1 order No. 4337; HBD2; 4338, HBD3 4382/recombinant LL37: Innovagen Lund Sweden, order No. SP-LL-37-1). Thereafter, aliquots of the samples were plated out on Columbia blood agar and incubated anaerobically for at least 4 days. The germinated spores in an untreated control and the preparations containing antimicrobial peptides were counted.

C. difficile spores [2] = experiment: Spore germination experiment repeated with wash-out of the peptides after incubation; settings: peptides washed out at end of incubation, medium free of peptides
Protocol: as §1
In order to able to establish with certainty whether either germinating bacteria are rapidly killed by the presence of antimicrobial peptides in the medium or the spores are in fact prevented from germinating, the experiment was repeated, but at the end of the incubation time, the peptides were washed out and the medium was free of peptides.

C. difficile spores [3] = experiment: Spore germination after incubation, wash-out and heat killing of residual vegetative cells (FIG. 1); settings: for decrease in germinating spores: incubation, wash-out, heat 61° C., 30 min, as a function of peptide concentration
Protocol: as §1
In further experiments, the inventers wanted to make the unambiguous assignment that resultant bacterial colonies can be attributed with certainty to the germinated spores and not to the steady growth of residual vegetative cells. To this end, incubation and wash-out were followed by killing the residual vegetative cells using heat (61° C., 30 min). This heat treatment kills only the vegetative cells, but not the spores.

C. difficile spores [4] = experiment: Electron microscopy of C. difficile spores incubated with gold-labeled HBD3 peptides (FIGS. 2 and 3)

Substance | germinated spores in comparison with the controls (C. difficile spores [1]) | inhibitory effect on spore germination despite wash-out (C. difficile spores [2]) | difference between the effect of LL37 and HBD3 (C. difficile spores [3]; at larger concentrations (10 μg/mL)) | difference between the effect of LL37 and HBD3 (C. difficile spores [3]; at low concentrations) | decrease in germinating spores (C. difficile spores [3]) | number of germinating spores (C. difficile spores [3]; 2.5 μg/mL peptide, after wash-out and heat treatment) | efficacy compared with the other effective peptide (C. difficile spores [3]; in lower concentrations, after wash-out and heat treatment) | structural destruction of the spores (C. difficile spores [4]) | penetration into the spores (C. difficile spores [4]; gold-labeled HBD3 peptides)
cathelicidin LL-37 [LL37] | significantly fewer germinated spores | maintained | hardly noticeable | distinct difference | concentration-dependent decrease in germinating spores |  |  |  | 
human beta-defensin-3 (GIINTLQKYYCRVRGGRCAVLSCLPKEEQIGKCSTRGRKCCRRKK; ends and bridges not checked; cysteine pairing not given here; UniProt P81534 23-67, looked up) [HBD3, Human beta-defensin 3, protein composed of 45 amino acids, net charge +11; recombinant, Peptanova order No. 4382] | significantly fewer germinated spores | maintained |  |  | concentration-dependent decrease in germinating spores | greatly lowering the number of germinating spores | somewhat higher efficacy | destroyed structurally; also recorded: destroys parts of the spore structure | able to penetrate into the spores; also recorded: penetrates into the exosporium
